# Laboratory results from patent US11506670B2, “Method of genome-wide direct identification of electrophile-sensing targets” (Cornell University, priority 2018, dated 2022).
# Assays:
# [1] = test system: Ube2V2 ubiquitination and cellular Ub pools; test: Ubiquitination analysis by IP, K63-TUBE pulldown and western blot in HEK293T cells; format: cell-based, human
# Method: Cells were lysed in 1×RIPA buffer containing in final concentrations 1× Protease inhibitor, 1 mM sodium orthovanadate and 1 mM PMSF, by rapid freeze-thaw (×3). Cell debris was removed and the supernatant was collected after centrifugation at 18,000×g for 20 min at 4° C. Protein concentration was determined using Bradford assay. 30-50 μg of total lysates were subjected to SDS-PAGE and the gel was transferred onto a PVDF membrane at 100 V for 1 h at 4° C. or at 40 V overnight at 4° C. Membrane was blocked with 10% milk and probed with various antibodies at the indicated dilutions (Table 4, above).
# HEK 293T cells were seeded in 2×60 cm^2 plates. After the cells reached 60% confluence (˜18-24 h), the old media was replaced with 8 mL of fresh complete media. Cells were transfected with 7.5 μg of the designated Halo clone and 30 μL PEI (1 mg/mL) in 600 μL in Opti-MEM media for 24-36 h after which the cells were treated with 25 μM Ht-PreHNE for 2.5 h. Rinsing and light shining protocol were as described above. Cells were harvested, pooled, washed twice with chilled 1×DPBS and flash frozen. Cell lysis was performed in 100-200 μL per 1.5×10^6 cells of either: lysis buffer [containing in final concentrations 50 mM HEPES (pH 7.6), 150 mM NaCl, 1% Nonidet P-40 and 1× Roche cOmplete, mini, EDTA-free protease inhibitor cocktail] for Flag pull down; or RIPA buffer [containing in final concentrations 50 mM HEPES (pH 7.6), 150 mM NaCl, 1% Nonidet P-40, 0.1% SDS, 0.25% sodium deoxycholate, and 1× Roche cOmplete, mini, EDTA-free protease inhibitor cocktail] for HA pull down, followed by rapid freeze-thaw cycles (×3). Lysate was clarified by centrifugation at 18,000×g for 10 min at 4° C. Total protein concentration was determined using Bradford assay with BSA as standard. The lysate was subsequently diluted to 2 mg/mL with binding buffer containing in final concentrations 50 mM HEPES (pH 7.6), 150 mM NaCl, 1× Roche cOmplete, mini, EDTA-free protease inhibitor cocktail, and 0.1% Tween-20. This diluted lysate was subjected to either 50-100 μL bed volume of ANTI-FLAG® M2 affinity gel (A2220, Sigma) or monoclonal anti-HA-agarose (clone HA-7, A2095, Sigma) that had been pre-equilibrated with the binding buffer above. The sample was incubated with beads for 2-3 h at 4° C. by end-over-end rotation after which time the supernatant was removed post-centrifugation at 1000×g (anti-FLAG pull down) or 5000×g (anti-HA pull down) for 3 min. The beads were washed three times at 4° C. with 500 μL wash buffer containing in final concentrations 50 mM HEPES (pH 7.6), 150 mM NaCl, 1× Roche cOmplete, mini, EDTA-free protease inhibitor cocktail, and 0.1% Tween-20, using end-over-end rotation over 10 min during each wash. The bound protein was eluted by either incubating with 0.15 mg/mL 3× flag peptide for 2 h at 4° C. (anti-Flag pull down) or by boiling the beads at 98° C. for 10 min with 30 μL of 3× Laemmeli dye containing 6% βME (anti-HA pull down). The sample was subjected to SDS-PAGE and transferred to a PVDF membrane for western blot analysis described above.
# Cells were grown and transfected as described above. After T-REX™ delivery, cells were harvested and lysed in 100-200 μL (˜1.5×10^6 cells) of lysis buffer [containing in final concentrations 50 mM HEPES (pH 7.6), 300 nM Biotin K63-TUBE, 150 mM NaCl, 5 mM EDTA, 3 mM 1,10-phenanthroline, 5 mM NEM, 20 μM PR-619, 1% Nonidet P-40 and 1× Roche cOmplete, mini, EDTA-free protease inhibitor cocktail] according to manufactures' manual (Biotin K63 TUBE, Lifesensors). Lysate was clarified by centrifugation at 18,000×g for 10 min at 4° C. Total protein concentration was determined using Bradford assay using BSA as standard. […]
# HaloTag = test: Reaction of purified recombinant HaloTag with HNE, in-gel fluorescence; format: biochemical; conditions: 0-16 equiv., 20-min incubation
# Method: HEK293T cells expressing HaloTag alone treated under standard T-REX™ delivery conditions with Ht-PreHNE were exposed to UV light (0.3 mW/cm^2, 365 nm) for the indicated time periods at which point the cells were harvested, lysed, and subjected to Click coupling and in-gel fluorescence analysis followed by western blot. Error bars designate SD (N=3). […] Purified recombinant HaloTag was treated with either the photocaged precursor Ht-PreHNE (FIG. 17, inset, and FIG. 29) (2 equiv., lane a, positive control), or directly with reactive electrophile HNE (FIG. 29) (0, 2, 4, 8, 16 equiv., lane b, c, d, e, f, respectively). After 20-min incubation, the samples were analyzed by in-gel fluorescence. M, molecular weight ladder.
# γ-H2AX = γ-H2AX immunofluorescence in HEK293T cells; format: cell-based, human
# Method: Cells were grown to 70% confluence in 35 mm glass-bottomed dishes and transfected with HaloTagged plasmids. T-REX™ delivery was performed as mentioned above. […] The fixative was aspirated and the cells washed three times with 1×DPBS with 5-min incubation at room temperature. Blocking and permeabilization was performed in one-step by incubation at 37° C. for 1 h in 1×DPBS containing 3% BSA and 0.2% Triton X-100. Cells were subsequently incubated with primary antibody (1:300, Table 4) in incubation buffer (1% BSA, 0.02% Triton X-100 in 1×DPBS) for 2 h at room temperature. Cells were rinsed 3 times with 1×DPBS with 5 min incubation for each wash and subsequently incubated in dark for 1 h at room temperature with corresponding second antibody (1:1000, Table 4) in incubation buffer. Cells were rinsed 3 times with 1×DPBS with 5 min incubation for each rinse. DAPI (Sigma) was freshly prepared in 1×DPBS from 2 mg/mL wt./v stock solution in water and added to the wells at the final concentration of 0.2 μg/mL. The samples were incubated in dark for 1 min and washed once with 1×DPBS and stored at 4° C. in dark till images were taken using a Zeiss LSM 710 meta confocal fluorescence microscope. Image analysis was performed using Image-J (NIH).
structure (smiles),measurement,setting,value
"CCCCCC(O)/C=C/C=O (stereo not shown) [HNE, 4-hydroxynonenal]",K63-linked total cellular Ub pools,[1]; HEK293T,did not alter K63-linked total cellular Ub pools
same,pan cellular poly-Ub-pools,[1]; HEK293T,no effect
same,K63-linked ubiquitination of Ube2V2 upon T-REX delivery,"[1]; cells expressing wt-Ube2V2, not C69S",significantly upregulated
same,reaction of HaloTag with HNE,HaloTag,does not react
same,γ-H2AX upregulation in Ube2V2-C69S-expressing cells,"γ-H2AX; T-REX, over 18-h time course",no significant γ-H2AX upregulation
same,time post light exposure up to which increased γ-H2AX could be measured,γ-H2AX; basal after 24 h,up to 18 h
same,increase in cellular γ-H2AX following Ube2V2(C69)-targeted-HNEylation,"γ-H2AX; wt-Halo-Ube2V2, T-REX",approximately two-fold
